Laboratory results taken from patent US4794115A, “Method of treating hyperlipemia” (Terumo Corporation, priority 1985, dated 1988).

Tested on: Wistar-King male rats
Experiment: Serum total cholesterol and triglycerides in cholesterol/cholic acid/corn oil-loaded rats after 7 days oral administration
Format: in vivo
Settings: once a day for 7 days, 4 hours after last administration, mean of 6 rats; for Serum lipid level, total cholesterol: control 210.0; for Serum lipid level, triglyceride: control 621.7
Experimental: Wistar-King male rats weighing 170 g are orally administered with 5% acacia gum suspension of the compound obtained in Example 1 or 2. Thirty minutes thereafter, a mixture of 10% cholesterol, 1% cholic acid and corn oil is orally administered at a dose of 10 ml/kg.
The above-described administration is made once a day for consecutive 7 days, and 4 hours after the last administration blood is drawn from the abdominal large artery of the rats under ether anesthesia. The blood is centrifuged at 1630×g at 4° C. for 10 min. to isolate serum. Measurements were made on serum levels of total cholesterol and triglycerides by means of serum lipid reagents, V-cholestase (Nissui, trade name for the total cholesterol) and V-Triglase (Nissui, trade name for the triglycerides). Results are shown in Table 1, in which mean values for a group of 6 animals are shown.

Row | SMILES | Serum lipid level, total cholesterol (dose 1.2 mM/kg) [mg/dL] | Serum lipid level, triglyceride (dose 1.2 mM/kg) [mg/dL] | Serum lipid level, total cholesterol (dose 2.4 mM/kg) [mg/dL] | Serum lipid level, triglyceride (dose 2.4 mM/kg) [mg/dL]
1 | CC/C=C\C/C=C\C/C=C\CCCCCCCC(=O)NCCOC(=O)c1cccnc1 [Example 1, N-(9,12,15-octadecatrienoyl)-2-aminoethyl nicotinate] | 198.9 | 350.1 | 146.6 | 258.4
2 | CC/C=C\C/C=C\C/C=C\C/C=C\C/C=C\CCCC(=O)NCCOC(=O)c1cccnc1 [Example 2, N-(5,8,11,14,17-eicosapentaenoyl)-2-aminoethyl nicotinate] | 194.8 | 296.4 | 130.4 | 202.8
3 | O=C(O)c1cccnc1 [Nicotinic acid, reference compound] |  |  | 195.4 | 312.2
